Assay results from PMC4592898, “Biochemical Characterisation of Phage Pseudomurein Endoisopeptidases PeiW and PeiP Using Synthetic Peptides” (Archaea, 2015).

Experiments:
PeiW = target: T1, PeiW (Methanothermobacter phage psiM100, UniProt Q7LYX0); test: inhibition of EγApNA hydrolysis, […] nm, […] min preincubation; assay type: biochemical; settings: for inhibition at 1000 µM: read-out: % inhibition at 1 mM
T1 construct: N-terminal His-tag kept, pET151D, E. coli BL21-Rosetta 2; 317 residues and 37,219 Da with tag; monomer
T1 sequence (Q7LYX0 whole entry): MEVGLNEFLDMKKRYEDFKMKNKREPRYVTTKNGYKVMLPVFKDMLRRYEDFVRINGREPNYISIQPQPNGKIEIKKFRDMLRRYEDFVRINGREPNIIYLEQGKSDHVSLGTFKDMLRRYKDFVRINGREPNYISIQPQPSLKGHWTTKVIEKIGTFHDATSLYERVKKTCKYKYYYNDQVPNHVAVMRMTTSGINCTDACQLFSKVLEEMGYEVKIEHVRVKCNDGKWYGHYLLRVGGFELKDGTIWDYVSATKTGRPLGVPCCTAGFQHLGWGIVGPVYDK

PeiP = target: T2, PeiP (Methanobacterium phage psiM2, UniProt Q77WJ4); test: as above; assay type: biochemical; settings: read-out: % inhibition at 1 mM
T2 construct: N-terminal His-tag kept, pET151D, E. coli BL21-Rosetta 2; 338 residues and 39,537 Da with tag; monomer
T2 sequence (Q77WJ4 whole entry): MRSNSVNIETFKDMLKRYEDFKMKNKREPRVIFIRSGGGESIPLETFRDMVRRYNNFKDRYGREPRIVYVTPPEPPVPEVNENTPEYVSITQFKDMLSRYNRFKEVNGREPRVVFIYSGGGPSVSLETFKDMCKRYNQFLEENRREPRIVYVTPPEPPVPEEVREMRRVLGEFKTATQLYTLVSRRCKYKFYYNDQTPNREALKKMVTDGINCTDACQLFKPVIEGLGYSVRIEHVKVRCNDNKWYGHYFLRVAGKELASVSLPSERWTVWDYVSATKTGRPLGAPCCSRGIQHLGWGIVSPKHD

inhibition at 1000 µM (PeiW) [%]	inhibition at 1000 µM (PeiP) [%]	Structure (SMILES)	% inhibition at 1 mM (PeiW; 60 °C, pH 7.85, 10 mM CaCl2, 10 mM TCEP) [%]
100	100	NCCSSCCN [Cystamine]	
60	50	CN(C)c1cccc2c(S(=O)(=O)NCCCCCN)cccc12 [Dansylcadaverine]	
10	30	CC(C)C[C@H](NC(=O)[C@@H]1O[C@H]1C(=O)O)C(=O)NCCCCNC(=N)N [E64]	
		O=S(=O)(F)Cc1ccccc1 [PMSF]	10
